For assay [1], the target named is T1, ACE2 (Homo sapiens, UniProt Q9BYF1).
T1 construct: purchased R & D systems 933-ZN-010
The assay is described as follows: ACE2 enzyme kinetics study with QFS (Example 5). It counts as biochemical. As to conditions: rhACE2 0.1 ng/μL, ACE2 QFS 0-100 μM; pre-incubation 1 h at 37° C. The procedure:
(§1) Plate reader-based enzyme assays were performed using a quenched fluorescent substrate (QFS) in a 96-well format using a SpectraMAX M4 Microplate reader (Molecular Devices). The increase in fluorescence following addition of QFS (40 μM) was taken as evidence of enzyme activity. Fluorescence was monitored over 2 h at 37° C. using κEx=320 nm and λEm=405 nm. Assays were conducted in black 96-well plates. Specific enzyme activity was expressed as a rate of substrate cleavage calculated using a standard curve of 7-methoxy-coumarin-4-acetic acid.
(§2) In all plate reader-based enzyme assays using QFS, the reaction rate (μmol of substrate cleaved/min) was calculated using linear regression analysis (GraphPad Prism software version 8.01). The reaction rates calculated were used to generate the enzyme kinetic parameters Vmax and Km through non-linear regression analysis (GraphPad Prism software, version 8.01; Michaelis-Menten equation). Where indicated, enzyme activity in the presence of peptide was expressed as a % of the enzyme alone. Data were expressed as mean±SEM and statistical significance was determined using t-tests or one-way ANOVAs followed by Tukey's post-hoc test. P<0.05 was considered as statistically significant. In all assays conducted using 96-well plates, the reaction mixtures in each well were considered an independent experiment. […]

Assay [2] has as its target T1, ACE2. The assay is described as follows: QFS assay of Aβ-degrading enzymes: ACE2 (Example 6). It counts as biochemical. The procedure: as §1
In all plate reader-based enzyme assays using QFS, the reaction rate (μmol of substrate cleaved/min) was calculated using linear regression analysis (GraphPad Prism software version 8.01). The reaction rates calculated were used to generate the enzyme kinetic parameters Vmax and Km through non-linear regression analysis (GraphPad Prism software, version 8.01; Michaelis-Menten equation). Where indicated, enzyme activity in the presence of peptide was expressed as a % of the enzyme alone. Data were expressed as mean±SEM and statistical significance was determined using t-tests or one-way ANOVAs followed by Tukey's post-hoc test. P<0.05 was considered as statistically significant. In all assays conducted using 96-well plates, the reaction mixtures in each well were considered an independent experiment.
SEQ ID NO:2 was assessed in a QFS assay against enzymes NEP, ECE1, ECE2, ACE1, ACE2, IDE and MMP-2 using the method in Example 2 and the following procedure. NEP, ACE1, ECE2 (0.05 ng/μL), ACE2, IDE (0.10 ng/μL), and ECE1 (6.4 ng/μL) were incubated with SEQ ID NO:2 (0.9-26 μM) or scrambled control (9 μM) for 1 h at 37° C. Prior to use, MMP2 (0.50 ng/μL) was activated using p-aminophenylmercuric acetate to a final concentration of 100 μM for 1 h at 37° C. Following activation, MMP2 was incubated with SEQ ID NO:2 for 1 h at 37° C. before adding the appropriate QFS.

In another assay the target is T2, ECE2 (Homo sapiens, UniProt P0DPD6).
T2 construct: purchased R & D systems 1645-ZN-010
T2 sequence (P0DPD6 1-811): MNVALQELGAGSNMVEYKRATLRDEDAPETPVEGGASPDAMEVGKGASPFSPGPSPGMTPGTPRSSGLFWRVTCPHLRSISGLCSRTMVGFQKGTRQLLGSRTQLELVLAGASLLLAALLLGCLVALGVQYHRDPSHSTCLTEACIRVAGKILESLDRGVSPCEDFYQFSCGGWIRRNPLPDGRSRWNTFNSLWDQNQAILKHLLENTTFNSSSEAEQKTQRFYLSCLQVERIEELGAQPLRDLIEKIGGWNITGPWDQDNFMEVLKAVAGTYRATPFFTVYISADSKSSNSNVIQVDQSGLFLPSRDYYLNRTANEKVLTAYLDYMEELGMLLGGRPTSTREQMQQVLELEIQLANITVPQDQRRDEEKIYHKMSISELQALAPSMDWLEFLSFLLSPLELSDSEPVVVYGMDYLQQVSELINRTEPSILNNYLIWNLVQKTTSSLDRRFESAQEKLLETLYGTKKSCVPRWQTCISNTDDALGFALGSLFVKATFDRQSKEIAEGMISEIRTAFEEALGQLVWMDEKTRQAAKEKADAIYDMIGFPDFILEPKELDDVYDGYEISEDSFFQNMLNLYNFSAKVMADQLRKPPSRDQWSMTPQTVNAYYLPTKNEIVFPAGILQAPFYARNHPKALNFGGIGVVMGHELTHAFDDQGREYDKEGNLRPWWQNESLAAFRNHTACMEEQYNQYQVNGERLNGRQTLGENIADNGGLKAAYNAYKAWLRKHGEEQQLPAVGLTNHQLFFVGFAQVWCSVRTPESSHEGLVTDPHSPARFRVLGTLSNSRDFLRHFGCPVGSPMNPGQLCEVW
The experiment in a line: QFS assay of Aβ-degrading enzymes: ECE2 (Example 6). The format is biochemical. The procedure:
as §1
as §2, with “significant.” for “significant. In all assays conducted using 96-well plates, the reaction mixtures in each well were considered an independent experiment.”
SEQ ID NO:2 was assessed in a QFS assay against enzymes NEP, ECE1, ECE2, ACE1, ACE2, IDE and MMP-2 using the method in Example 2 and the following procedure. […]

The next assay deals with SARS-CoV-2. It counts as cell-based. As to conditions: pre-treatment, Vero cells, 8 h.

Where two headings read alike, the source gives them in different places.

T1 sequence (Q9BYF1 18-805): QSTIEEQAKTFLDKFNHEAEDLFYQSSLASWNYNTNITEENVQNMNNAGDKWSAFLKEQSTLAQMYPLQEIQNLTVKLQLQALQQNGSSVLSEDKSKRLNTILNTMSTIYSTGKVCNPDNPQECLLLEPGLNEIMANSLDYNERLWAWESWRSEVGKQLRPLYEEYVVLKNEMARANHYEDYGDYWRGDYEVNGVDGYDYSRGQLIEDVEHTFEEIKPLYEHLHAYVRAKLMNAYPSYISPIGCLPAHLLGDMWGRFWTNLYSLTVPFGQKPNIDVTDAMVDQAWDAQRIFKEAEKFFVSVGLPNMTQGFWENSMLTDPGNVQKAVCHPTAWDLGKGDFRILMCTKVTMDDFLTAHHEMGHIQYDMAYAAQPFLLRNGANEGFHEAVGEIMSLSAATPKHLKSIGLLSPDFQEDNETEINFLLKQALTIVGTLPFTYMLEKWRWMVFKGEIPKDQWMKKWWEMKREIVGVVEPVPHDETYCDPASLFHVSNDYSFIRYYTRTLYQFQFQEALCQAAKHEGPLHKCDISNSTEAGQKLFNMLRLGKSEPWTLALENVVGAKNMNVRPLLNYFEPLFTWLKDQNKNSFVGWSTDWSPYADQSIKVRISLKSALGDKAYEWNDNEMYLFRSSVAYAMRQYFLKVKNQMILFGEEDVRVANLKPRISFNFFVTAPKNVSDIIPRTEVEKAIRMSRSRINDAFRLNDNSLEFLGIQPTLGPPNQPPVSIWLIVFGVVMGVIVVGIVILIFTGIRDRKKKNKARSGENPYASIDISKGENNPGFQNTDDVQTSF

As to “H-SLFELGKMIL-NH2 [SEQ ID NO:2, H2N-SLFELGKMIL-NH2]”, the “vmax of rhACE2 in the presence of peptide” value at ACE2 [1] is 0.09±0.002 μmol substrate cleaved/min. Further, the “ACE2 activity compared with respective enzyme alone” value at ACE2 [2] (peptide 2 μM (FIG. 2c)) is reported as “significantly increased”. For the same substance, the “activity of ACE2 as % of enzyme alone controls” value at ACE2 [2] (peptide 9 μM) came out at 283%. Further, at ACE2 [2] (peptide 0.9-26 μM), the “ACE2 activity, concentration dependence” value is reported as “increased the activity”. The “ECE2 activity compared with respective enzyme alone” value at ECE2 (peptide 2 μM (FIG. 2c)) was “did not increase”. Also, the “ECE2 activity, concentration dependence” value on ECE2 (peptide 0.9-26 μM) was “did not affect”. Moreover, the “viral titre compared to PBS” value in the assay on SARS-CoV-2 (200 ng/μL) was “significantly reduced”. In addition, in the assay on SARS-CoV-2 (400 ng/μL), the “viral RNA compared to PBS” value was “significantly reduced” and the “viral titre compared to PBS” value was “significantly reduced”.

For the origin of these results see patent publication US20240002441A1, “PEPTIDES AND USES THEREOF IN MODULATION OF AMYLOID-BETA PROTEIN DEGRADING PROTEASES” (priority 2020, published 2024).
